Values joined by “and” are separate entries in the source; they are usually repeats but may differ in a detail not shown here. Equal entries are not always repeated.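 All cell lines were grown in 96-well plates and treated with compound for 48 hours. GI50 = concentration required for 50% inhibition of growth. At the TGI there is no net growth.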
Key:
Test in all cases: NCI tumour cell line growth inhibition, 48 h
OVCAR-8 ovarian = system: OVCAR-8 ovarian
HCC-2998 colon = system: HCC-2998 colon
HOP-92 NSCLC = system: HOP-92 NSCLC
M14 melanoma = system: M14 melanoma
TK-10 renal = system: TK-10 renal
IGROV1 ovarian = system: IGROV1 ovarian
BT-549 breast = system: BT-549 breast
HOP-62 NSCLC = system: HOP-62 NSCLC
SK-MEL-5 melanoma = system: SK-MEL-5 melanoma
ACHN renal = system: ACHN renal
HT29 colon = system: HT29 colon
MCF7 breast = system: MCF7 breast
OVCAR-5 ovarian = system: OVCAR-5 ovarian
NCI/ADR-RES ovarian = system: NCI/ADR-RES ovarian
SNB-75 CNS = system: SNB-75 CNS
OVCAR-4 ovarian = system: OVCAR-4 ovarian
SR leukemia = system: SR leukemia
KM12 colon = system: KM12 colon
MALME-3M melanoma = system: MALME-3M melanoma
786-0 renal = system: 786-0 renal
MDA-MB-435 = system: MDA-MB-435
NCI-H460 lung = system: NCI-H460 lung
HL-60(TB) leukemia = system: HL-60(TB) leukemia
SF-268 CNS = system: SF-268 CNS
MDA-MB-231 breast = system: MDA-MB-231 breast
HCT-116 colon = system: HCT-116 colon
NCI-H522 lung = system: NCI-H522 lung
SK-MEL-28 melanoma = system: SK-MEL-28 melanoma
K-562 leukemia = system: K-562 leukemia
SK-MEL-2 melanoma = system: SK-MEL-2 melanoma
MOLT-4 leukemia = system: MOLT-4 leukemia
SNB-19 CNS = system: SNB-19 CNS
MDA-N = system: MDA-N
CAKI-1 renal = system: CAKI-1 renal
OVCAR-3 ovarian = system: OVCAR-3 ovarian
DU-145 prostate = system: DU-145 prostate
UACC-62 melanoma = system: UACC-62 melanoma
HCT-15 colon = system: HCT-15 colon
NCI-H226 lung = system: NCI-H226 lung
CCRF-CEM leukemia = system: CCRF-CEM leukemia
COLO 205 colon = system: COLO 205 colon
UO-31 renal = system: UO-31 renal
SF-539 CNS = system: SF-539 CNS
SF-295 CNS = system: SF-295 CNS
UACC-257 melanoma = system: UACC-257 melanoma
LOX IMVI melanoma = system: LOX IMVI melanoma
A549 NSCLC = system: A549 NSCLC
T-47D breast = system: T-47D breast
SW-620 colon = system: SW-620 colon
EKVX NSCLC = system: EKVX NSCLC
HS 578T breast = system: HS 578T breast
U251 CNS = system: U251 CNS
SN12C renal = system: SN12C renal
RPMI-8226 leukemia = system: RPMI-8226 leukemia
SK-OV-3 ovarian = system: SK-OV-3 ovarian
PC-3 prostate = system: PC-3 prostate
NCI-H23 lung = system: NCI-H23 lung
A498 renal = system: A498 renal
RXF 393 renal = system: RXF 393 renal

## O=Nc1c(NO)ccc2nn(-c3ccccc3)nc12
OVCAR-8 ovarian
  TGI: > 100 µM
HCC-2998 colon
  TGI: 85.5 µM
HOP-92 NSCLC
  TGI: > 100 µM
M14 melanoma
  TGI: > 100 µM
TK-10 renal
  TGI: > 100 µM
IGROV1 ovarian
  TGI: 49.4 µM
BT-549 breast
  TGI: > 100 µM
HOP-62 NSCLC
  TGI: > 100 µM
SK-MEL-5 melanoma
  TGI: 10.8 µM
ACHN renal
  TGI: 47.7 µM
HT29 colon
  TGI: > 100 µM
MCF7 breast
  TGI: 19.6 µM
OVCAR-5 ovarian
  TGI: 37.6 µM
NCI/ADR-RES ovarian
  TGI: > 100 µM
SNB-75 CNS
  TGI: > 100 µM
OVCAR-4 ovarian
  TGI: > 100 µM
SR leukemia
  TGI: > 100 µM
KM12 colon
  TGI: > 100 µM
MALME-3M melanoma
  TGI: > 100 µM
786-0 renal
  TGI: > 100 µM
MDA-MB-435
  TGI: 38.3 µM
NCI-H460 lung
  TGI: > 100 µM
HL-60(TB) leukemia
  TGI: > 100 µM
SF-268 CNS
  TGI: > 100 µM
MDA-MB-231 breast
  TGI: > 100 µM
HCT-116 colon
  TGI: 23.1 µM
NCI-H522 lung
  TGI: 13.2 µM
SK-MEL-28 melanoma
  TGI: 43.3 µM
K-562 leukemia
  TGI: > 100 µM
SK-MEL-2 melanoma
  TGI: > 100 µM
MOLT-4 leukemia
  TGI: 74.5 µM
SNB-19 CNS
  TGI: > 100 µM
MDA-N
  TGI: > 100 µM
CAKI-1 renal
  TGI: 71.3 µM
OVCAR-3 ovarian
  TGI: > 100 µM
DU-145 prostate
  TGI: > 100 µM
UACC-62 melanoma
  TGI: 9.21 µM
HCT-15 colon
  TGI: > 100 µM
NCI-H226 lung
  TGI: 6.64 µM
CCRF-CEM leukemia
  TGI: > 100 µM
COLO 205 colon
  TGI: > 100 µM
UO-31 renal
  TGI: 11.8 µM
SF-539 CNS
  TGI: 18.4 µM
SF-295 CNS
  TGI: > 100 µM
UACC-257 melanoma
  TGI: 11.7 µM
LOX IMVI melanoma
  TGI: > 100 µM
A549 NSCLC
  TGI: > 100 µM
T-47D breast
  TGI: > 100 µM
SW-620 colon
  TGI: > 100 µM
EKVX NSCLC
  TGI: > 100 µM
HS 578T breast
  TGI: > 100 µM
U251 CNS
  TGI: > 100 µM
SN12C renal
  TGI: 40 µM
RPMI-8226 leukemia
  TGI: > 100 µM
SK-OV-3 ovarian
  TGI: > 100 µM
PC-3 prostate
  TGI: > 100 µM

## COc1ccc(C)cc1Nc1nnc(-c2ccc(N)cc2)s1
OVCAR-8 ovarian
  TGI: > 100 µM
HCC-2998 colon
  TGI: > 100 µM
HOP-92 NSCLC
  TGI: > 100 µM
M14 melanoma
  TGI: > 100 µM
IGROV1 ovarian
  TGI: > 100 µM
BT-549 breast
  TGI: > 100 µM
HOP-62 NSCLC
  TGI: > 100 µM
SK-MEL-5 melanoma
  TGI: > 100 µM
ACHN renal
  TGI: > 100 µM
HT29 colon
  TGI: > 100 µM
MCF7 breast
  TGI: > 100 µM
NCI-H23 lung
  TGI: > 100 µM
OVCAR-5 ovarian
  TGI: > 100 µM
NCI/ADR-RES ovarian
  TGI: > 100 µM
SNB-75 CNS
  TGI: > 100 µM
OVCAR-4 ovarian
  TGI: > 100 µM
SR leukemia
  TGI: > 100 µM
KM12 colon
  TGI: > 100 µM
MALME-3M melanoma
  TGI: > 100 µM
786-0 renal
  TGI: > 100 µM
MDA-MB-435
  TGI: > 100 µM
NCI-H460 lung
  TGI: > 100 µM
HL-60(TB) leukemia
  TGI: > 100 µM
SF-268 CNS
  TGI: > 100 µM
A498 renal
  TGI: > 100 µM
HCT-116 colon
  TGI: > 100 µM
NCI-H522 lung
  TGI: > 100 µM
RXF 393 renal
  TGI: > 100 µM
SK-MEL-28 melanoma
  TGI: > 100 µM
K-562 leukemia
  TGI: > 100 µM
SK-MEL-2 melanoma
  TGI: > 100 µM
MOLT-4 leukemia
  TGI: > 100 µM
SNB-19 CNS
  TGI: > 100 µM
MDA-N
  TGI: > 100 µM
CAKI-1 renal
  TGI: > 100 µM
OVCAR-3 ovarian
  TGI: > 100 µM
DU-145 prostate
  TGI: > 100 µM
UACC-62 melanoma
  TGI: > 100 µM
HCT-15 colon
  TGI: > 100 µM
NCI-H226 lung
  TGI: > 100 µM
CCRF-CEM leukemia
  TGI: > 100 µM
COLO 205 colon
  TGI: > 100 µM
UO-31 renal
  TGI: > 100 µM
SF-539 CNS
  TGI: > 100 µM
SF-295 CNS
  TGI: > 100 µM
UACC-257 melanoma
  TGI: > 100 µM
LOX IMVI melanoma
  TGI: > 100 µM
A549 NSCLC
  TGI: > 100 µM
T-47D breast
  TGI: > 100 µM
SW-620 colon
  TGI: > 100 µM
EKVX NSCLC
  TGI: > 100 µM
HS 578T breast
  TGI: > 100 µM
SN12C renal
  TGI: > 100 µM
RPMI-8226 leukemia
  TGI: 98.4 µM
SK-OV-3 ovarian
  TGI: > 100 µM
PC-3 prostate
  TGI: > 100 µM

## COc1ccc(C2c3c(-c4ccccc4)nn(-c4ccccc4)c3Oc3ncn4nc(CC#N)nc4c32)cc1OC (centres undefined)
OVCAR-8 ovarian
  TGI: > 100 µM
HCC-2998 colon
  GI50: > 100 µM and 22.6 µM
  TGI: > 100 µM
HOP-92 NSCLC
  GI50: 17.6 µM and 1.96 µM
M14 melanoma
  GI50: 55.6 µM and 6.33 µM
  TGI: > 100 µM and 13.3 µM
TK-10 renal
  GI50: 27.8 µM and 3.31 µM
  TGI: > 100 µM and 14.6 µM
IGROV1 ovarian
  GI50: 16.8 µM and 5.81 µM
  TGI: 41.7 µM and > 47 µM
BT-549 breast
  GI50: 19.9 µM and 8.82 µM
  TGI: 59.2 µM and > 41.6 µM
SK-MEL-5 melanoma
  TGI: > 100 µM
ACHN renal
  TGI: > 100 µM and 16.1 µM
HT29 colon
  GI50: 99.9 µM and 14.8 µM
  TGI: > 100 µM
MCF7 breast
  GI50: 36.5 µM and 99.4 µM
  TGI: > 100 µM
NCI-H23 lung
  GI50: 47.2 µM and 19.5 µM
  TGI: > 100 µM
OVCAR-5 ovarian
  TGI: > 100 µM and 13.8 µM
NCI/ADR-RES ovarian
  GI50: 26.2 µM and 3.6 µM
  TGI: 67.5 µM and > 45.4 µM
SNB-75 CNS
  TGI: > 100 µM and 12.2 µM
OVCAR-4 ovarian
  TGI: 65.9 µM and 7.38 µM
SR leukemia
  TGI: 33 µM
KM12 colon
  GI50: 78.2 µM and > 22.1 µM
  TGI: > 100 µM
786-0 renal
  GI50: 8.4 µM and 2.09 µM
  TGI: 20.7 µM and 5.51 µM
MDA-MB-435
  GI50: > 100 µM
  TGI: > 100 µM
NCI-H460 lung
  TGI: > 100 µM and 46.7 µM
HL-60(TB) leukemia
  GI50: 30.4 µM and > 100 µM
  TGI: > 100 µM
SF-268 CNS
  GI50: 16.6 µM and 3.29 µM
  TGI: 42.5 µM and > 36.1 µM
MDA-MB-231 breast
  GI50: 9.03 µM and 1.77 µM
  TGI: 22.8 µM and 4.68 µM
A498 renal
  GI50: > 100 µM and 10.8 µM
  TGI: > 100 µM and 31.3 µM
HCT-116 colon
  GI50: 40.7 µM and 9.55 µM
  TGI: > 100 µM
NCI-H522 lung
  GI50: 40.2 µM and 4.62 µM
  TGI: > 100 µM and 15.7 µM
SK-MEL-28 melanoma
  TGI: > 100 µM
K-562 leukemia
  TGI: > 100 µM
SK-MEL-2 melanoma
  TGI: > 100 µM and 47.3 µM
MOLT-4 leukemia
  TGI: > 100 µM
SNB-19 CNS
  GI50: 23.6 µM and 4.62 µM
  TGI: 73.7 µM and 33.7 µM
MDA-N
  GI50: > 100 µM and 16.2 µM
  TGI: > 100 µM
CAKI-1 renal
  TGI: > 100 µM and 13.8 µM
OVCAR-3 ovarian
  GI50: 75.4 µM and 10.3 µM
  TGI: > 100 µM
DU-145 prostate
  TGI: > 100 µM
HCT-15 colon
  TGI: > 100 µM
NCI-H226 lung
  GI50: 15.9 µM and 2.09 µM
  TGI: 39 µM and 6.28 µM
CCRF-CEM leukemia
  GI50: 28.6 µM and > 100 µM
  TGI: > 100 µM
COLO 205 colon
  GI50: > 100 µM
  TGI: > 100 µM
UO-31 renal
  GI50: > 100 µM
  TGI: > 100 µM
SF-539 CNS
  GI50: 19.2 µM and 2.49 µM
  TGI: 36.9 µM and > 27.6 µM
SF-295 CNS
  TGI: > 100 µM
UACC-257 melanoma
  TGI: > 100 µM and 40.4 µM
LOX IMVI melanoma
  GI50: 15.7 µM and 3.63 µM
  TGI: 35.8 µM and 26.3 µM
A549 NSCLC
  GI50: > 100 µM and 13.7 µM
  TGI: > 100 µM and 68.1 µM
T-47D breast
  TGI: > 54 µM
SW-620 colon
  GI50: 24.2 µM and > 82.3 µM
  TGI: > 100 µM
EKVX NSCLC
  TGI: > 76.3 µM
HS 578T breast
  TGI: 59.1 µM and 6.86 µM
U251 CNS
  GI50: 23.5 µM and 3.62 µM
  TGI: 63.8 µM and 16.7 µM
SN12C renal
  TGI: 44.5 µM and > 41.9 µM
RPMI-8226 leukemia
  GI50: > 100 µM and 20.9 µM
  TGI: > 100 µM
SK-OV-3 ovarian
  TGI: > 100 µM and 17.9 µM
PC-3 prostate
  GI50: 32.6 µM and 12.3 µM
  TGI: > 100 µM and 49.1 µM
